These results are taken from patent US6951881B2, “(1-substituted-indol-3-yl) alkylidenehydrazinecarboximidamide derivatives as 5-hydroxytryptamine-6 ligands” (Wyeth, priority 2002, dated 2005).

T1 sequence (P50406 whole entry): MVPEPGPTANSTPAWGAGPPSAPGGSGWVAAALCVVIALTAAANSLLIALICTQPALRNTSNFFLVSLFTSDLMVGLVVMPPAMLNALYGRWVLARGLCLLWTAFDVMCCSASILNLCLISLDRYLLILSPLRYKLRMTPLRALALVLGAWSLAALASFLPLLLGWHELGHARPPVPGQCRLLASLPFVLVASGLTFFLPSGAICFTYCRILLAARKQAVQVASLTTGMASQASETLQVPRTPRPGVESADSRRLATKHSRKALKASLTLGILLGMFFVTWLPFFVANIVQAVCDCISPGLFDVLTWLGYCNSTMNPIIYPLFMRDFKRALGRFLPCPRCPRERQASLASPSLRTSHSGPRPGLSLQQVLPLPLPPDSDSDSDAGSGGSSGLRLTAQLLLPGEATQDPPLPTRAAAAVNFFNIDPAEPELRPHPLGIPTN

The first test concerns the target T1, human cloned 5-HT6 receptors (Homo sapiens, UniProt P50406).
T1 construct: expressed in transfected cells; host or cells: HeLa cells
It is filed as binding.
Details: not given
Regarding `CN(N=C1CCc2[nH]c3ccc(Cl)cc3c21)C1=NCCN1` [Example 184, 7-Chloro-3,4-dihydrocyclopenta[b]indol-1(2H)-one 4,5-dihydro-1H-imidazol-2-yl-(methyl)hydrazone], testing at 0.1 µM gave an inhibition of 19.8%.

The test is the same for the next values; noted with them: test compound dose 100 nM; displacement of [3H]-LSD.
Turning to “N-benzyl-2-(6-chloro-1,2,3,9-tetrahydro-4H-carbazol-4-ylidene)hydrazinecarboximidamide [Example 182]”, the % Inhibition (as a rule, the percentage by which the read-out fell short of the control) came out at 47.3%.

Still in this test, the particulars now being: test compound dose 100 nM; displacement of [3H]-LSD; read-out: % Inhibition.
Regarding `CC1(C)CC(=NNC(=N)N)c2c([nH]c3ccc(Cl)cc23)C1` [Example 171, 2-(6-chloro-2,2-dimethyl-1,2,3,9-tetrahydro-4H-carbazol-4-ylidene)hydrazinecarboximidamide], the inhibition (as a rule, the change of the read-out against control, counted positive when it falls) at 0.1 µM amounted to 30.7%. Still for that read-out and setting: the figure for `N=C(N)NN=C1CC(c2ccccc2)Cc2[nH]c3ccc(Cl)cc3c21` (centres unmarked) [Example 172, 2-(6-chloro-2-phenyl-1,2,3,9-tetrahydro-4H-carbazol-4-ylidene)hydrazinecarboximidamide] is 24.6%; for `CC1(C)CC(=NNC(=N)N)c2c([nH]c3ccc(F)cc23)C1` [Example 173, 2-(6-fluoro-2,2-dimethyl-1,2,3,9-tetrahydro-4H-carbazol-4-ylidene)hydrazinecarboximidamide] it is 26.7%; for `Cc1ccc2[nH]c3c(c2c1)C(=NN(C)C1=NCCN1)CC(C)(C)C3` [Example 174, 2,2,6-trimethyl-1,2,3,9-tetrahydro-4H-carbazol-4-one 4,5-dihydro-1H-imidazol-2-yl(methyl)-hydrazone] it is 25.5%. Still for that read-out and setting: as for `Cc1ccc2[nH]c3c(c2c1)C(=NN(C)C1=NCCN1)CC(c1ccccc1)C3` (centres unmarked) [Example 175, 6-methyl-2-phenyl-1,2,3,9-tetrahydro-4H-carbazol-4-one 4,5-dihydro-1H-imidazol-2-yl(methyl)-hydrazone], the figure is 18.6%; as for `Cc1ccc2[nH]c3c(c2c1)C(=NN(C)C1=NCCN1)CCC3` [Example 176, 6-methyl-1,2,3,9-tetrahydro-4H-carbazol-4-one 4,5-dihydro-1H-imidazol-2-yl(methyl)hydrazone], 24.2%; as for `CC(C)c1ccc2[nH]c3c(c2c1)C(=NN(C)C1=NCCN1)CC(C)(C)C3` [Example 177, 6-isopropyl-2,2-dimethyl-1,2,3,9-tetrahydro-4H-carbazol-4-one 4,5-dihydro-1H-imidazol-2-yl(methyl)hydrazone], 22.9%.

With `CC(C)c1ccc2[nH]c3c(c2c1)C(=NN(C)C1=NCCN1)CC(c1ccccc1)C3` (centres unmarked) [Example 178, 6-isopropyl-2-phenyl-1,2,3,9-tetrahydro-4H-carbazol-4-one 4,5-dihydro-1H-imidazol-2-yl-(methyl)hydrazone], the inhibition at 0.1 µM was 25.6%. On the same count and under the same terms, as for `CC(C)c1ccc2[nH]c3c(c2c1)C(=NN(C)C1=NCCN1)CCC3` [Example 179, 6-isopropyl-1,2,3,9-tetrahydro-4H-carbazol-4-one 4,5-dihydro-1H-imidazol-2-yl(methyl)-hydrazone], the figure is 5.6%. The same measure, in the same setting: as for `CN(N=C1CC(c2ccccc2)Cc2[nH]c3ccc(F)cc3c21)C1=NCCN1` (centres unmarked) [Example 180, 6-fluoro-2-phenyl-1,2,3,9-tetrahydro-4H-carbazol-4-one 4,5-dihydro-1H-imidazol-2-yl(methyl)-hydrazone], the figure is 11.5%; as for `CCCCCNC(=N)NN=C1CCCc2[nH]c3ccc(Cl)cc3c21` [Example 181, 2-(6-chloro-1,2,3,9-tetrahydro-4H-carbazol-4-ylidene)-N-pentylhydrazinecarboximidamide], 47%; as for `N=C(NN=C1CCCc2[nH]c3ccc(Cl)cc3c21)NC1CCCC1` [Example 183, 2-(6-chloro-1,2,3,9-tetrahydro-4H-carbazol-4-ylidene)-N-cyclopentylhydrazinecarboximidamide], 55.3%.
